Laboratory results reported in article PMC7567103 (Nature Communications, 2020).

Columns and labels:
Type in all cases: cell-based
Conditions in all cases: mean ± SEM, n ≥ 3
GHRHR T213A = target: T1, GHRHR T213A (Homo sapiens, UniProt Q02643, T213A); assay: cAMP accumulation, T213A
T1 construct: GHRHR(23-423)-; HA signal peptide (replaces native signal M1-G22) (N); expressed in transfected cells; host or cells: HEK 293T, pcDNA3.1, transient
Description: (§1) Fig. 2 Molecular recognition of GHRH by GHRHR and comparison of that with LA-PTH–PTH1R and GLP-1–GLP-1R. a Detailed interaction between GHRH and the TMD pocket of GHRHR with hydrogen bonds shown as dotted lines. b, c Pairwise comparison of GHRH bound to GHRHR with GLP-1 and LA-PTH in complex with their corresponding receptors, showing the relative positions of peptide ligands. Lime green, GHRHR; blue, GHRH; red, PTH1R and LA-PTH; purple, GLP-1R and GLP-1. d–f The effects of mutation in the ligand-binding pocket on cAMP accumulation. cAMP levels were measured in wild-type (WT) receptor and alanine mutants in ECL1, 2, and 3 (d), TM1, 2, and 3 (e), and TM5, 6, and 7 (f). cAMP signals were normalized to the maximum response of WT and concentration–response curves were analyzed using a three-parameter logistic equation. Data shown are means ± S.E.M. of at least three independent experiments (n = 3–5), conducted in triplicate. Source data are provided as a Source data file.
(§2) GHRH-stimulated cAMP accumulation was measured by a LANCE Ultra cAMP kit (PerkinElmer). […] After 1 h RT incubation, TR-FRET signals (excitation: 320 nm, emission: 615 and 665 nm) were measured by an EnVision (PerkinElmer).

GHRHR D193A = target: T2, GHRHR D193A (Homo sapiens, UniProt Q02643, D193A); assay: cAMP accumulation, D193A
T2 construct: GHRHR(23-423)-; HA signal peptide (replaces native signal M1-G22) (N); expressed in transfected cells; host or cells: HEK 293T, pcDNA3.1, transient
Description: as §1, §2

GHRHR H210A = target: T3, GHRHR H210A (Homo sapiens, UniProt Q02643, H210A); assay: cAMP accumulation, H210A
T3 construct: GHRHR(23-423)-; HA signal peptide (replaces native signal M1-G22) (N); expressed in transfected cells; host or cells: HEK 293T, pcDNA3.1, transient
Description: as §1, §2

GHRHR A271F = target: T4, GHRHR A271F (Homo sapiens, UniProt Q02643, A271F); assay: cAMP accumulation, A271F
T4 construct: GHRHR(23-423)-; HA signal peptide (replaces native signal M1-G22) (N); expressed in transfected cells; host or cells: HEK 293T, pcDNA3.1, transient
Description: as §1, §2

GHRHR C195A = target: T5, GHRHR C195A (Homo sapiens, UniProt Q02643, C195A); assay: cAMP accumulation, C195A
T5 construct: GHRHR(23-423)-; HA signal peptide (replaces native signal M1-G22) (N); expressed in transfected cells; host or cells: HEK 293T, pcDNA3.1, transient
Description: as §1, §2

GHRHR D350A = target: T6, GHRHR D350A (Homo sapiens, UniProt Q02643, D350A); assay: cAMP accumulation, D350A
T6 construct: GHRHR(23-423)-; HA signal peptide (replaces native signal M1-G22) (N); expressed in transfected cells; host or cells: HEK 293 T
Description: as §1, §2

GHRHR L362A = target: T7, GHRHR L362A (Homo sapiens, UniProt Q02643, L362A); assay: cAMP accumulation, L362A
T7 construct: GHRHR(23-423)-; HA signal peptide (replaces native signal M1-G22) (N); expressed in transfected cells; host or cells: HEK 293 T
Description: as §1, §2

GHRHR F187A = target: T8, GHRHR F187A (Homo sapiens, UniProt Q02643, F187A); assay: cAMP accumulation, F187A
T8 construct: GHRHR(23-423)-; HA signal peptide (replaces native signal M1-G22) (N); expressed in transfected cells; host or cells: HEK 293T, pcDNA3.1, transient
Description: as §1, §2

GHRHR L119A = target: T9, GHRHR L119A (Homo sapiens, UniProt Q02643, L119A); assay: cAMP accumulation, L119A
T9 construct: GHRHR(23-423)-; HA signal peptide (replaces native signal M1-G22) (N); expressed in transfected cells; host or cells: HEK 293T, pcDNA3.1, transient
Description: as §1, §2

GHRHR N346A = target: T10, GHRHR N346A (Homo sapiens, UniProt Q02643, N346A); assay: cAMP accumulation, N346A
T10 construct: GHRHR(23-423)-; HA signal peptide (replaces native signal M1-G22) (N); expressed in transfected cells; host or cells: HEK 293T, pcDNA3.1, transient
Description: as §1, §2

GHRHR T192A = target: T11, GHRHR T192A (Homo sapiens, UniProt Q02643, T192A); assay: cAMP accumulation, T192A
T11 construct: GHRHR(23-423)-; HA signal peptide (replaces native signal M1-G22) (N); expressed in transfected cells; host or cells: HEK 293T, pcDNA3.1, transient
Description: as §1, §2

GHRHR V129A = target: T12, GHRHR V129A (Homo sapiens, UniProt Q02643, V129A); assay: cAMP accumulation, V129A
T12 construct: GHRHR(23-423)-; HA signal peptide (replaces native signal M1-G22) (N); expressed in transfected cells; host or cells: HEK 293T, pcDNA3.1, transient
Description: as §1, §2

GHRHR I289A = target: T13, GHRHR I289A (Homo sapiens, UniProt Q02643, I289A); assay: cAMP accumulation, I289A
T13 construct: GHRHR(23-423)-; HA signal peptide (replaces native signal M1-G22) (N); expressed in transfected cells; host or cells: HEK 293T, pcDNA3.1, transient
Description: as §1, §2

GHRHR F126A = target: T14, GHRHR F126A (Homo sapiens, UniProt Q02643, F126A); assay: cAMP accumulation, F126A
T14 construct: GHRHR(23-423)-; HA signal peptide (replaces native signal M1-G22) (N); expressed in transfected cells; host or cells: HEK 293T, pcDNA3.1, transient
Description: as §1, §2

T9 sequence (Q02643 23-423 L119A): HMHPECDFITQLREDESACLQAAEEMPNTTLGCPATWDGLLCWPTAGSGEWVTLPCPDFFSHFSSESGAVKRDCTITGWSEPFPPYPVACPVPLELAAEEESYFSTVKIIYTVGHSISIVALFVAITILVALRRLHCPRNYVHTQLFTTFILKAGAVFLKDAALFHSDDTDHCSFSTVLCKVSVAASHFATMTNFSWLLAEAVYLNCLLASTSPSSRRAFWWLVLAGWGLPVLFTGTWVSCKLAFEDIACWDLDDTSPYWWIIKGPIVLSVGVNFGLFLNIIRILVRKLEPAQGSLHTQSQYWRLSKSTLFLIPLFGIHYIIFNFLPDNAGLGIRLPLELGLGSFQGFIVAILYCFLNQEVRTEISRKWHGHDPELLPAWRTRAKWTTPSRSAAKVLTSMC
T8 sequence (Q02643 23-423 F187A): as the sequence (Q02643 23-423 L119A) above, with A97L, F165A counted along it
T1 sequence (Q02643 23-423 T213A): as the sequence (Q02643 23-423 L119A) above, with A97L, T191A counted along it
T14 sequence (Q02643 23-423 F126A): as the sequence (Q02643 23-423 L119A) above, with A97L, F104A counted along it
T6 sequence (Q02643 23-423 D350A): as the sequence (Q02643 23-423 L119A) above, with A97L, D328A counted along it
T11 sequence (Q02643 23-423 T192A): as the sequence (Q02643 23-423 L119A) above, with A97L, T170A counted along it
T3 sequence (Q02643 23-423 H210A): as the sequence (Q02643 23-423 L119A) above, with A97L, H188A counted along it
T13 sequence (Q02643 23-423 I289A): as the sequence (Q02643 23-423 L119A) above, with A97L, I267A counted along it
T5 sequence (Q02643 23-423 C195A): as the sequence (Q02643 23-423 L119A) above, with A97L, C173A counted along it
T7 sequence (Q02643 23-423 L362A): as the sequence (Q02643 23-423 L119A) above, with A97L, L340A counted along it
T10 sequence (Q02643 23-423 N346A): as the sequence (Q02643 23-423 L119A) above, with A97L, N324A counted along it
T4 sequence (Q02643 23-423 A271F): as the sequence (Q02643 23-423 L119A) above, with A97L, A249F counted along it
T12 sequence (Q02643 23-423 V129A): as the sequence (Q02643 23-423 L119A) above, with A97L, V107A counted along it
T2 sequence (Q02643 23-423 D193A): as the sequence (Q02643 23-423 L119A) above, with A97L, D171A counted along it

Question: What does the source list for `CC[C@H](C)[C@H](NC(=O)[C@H](C)NC(=O)[C@H](CC(=O)O)NC(=O)[C@H](C)NC(=O)[C@@H](N)Cc1ccc(O)cc1)C(=O)N[C@@H](Cc1ccccc1)C(=O)N[C@H](C(=O)N[C@@H](CC(N)=O)C(=O)N[C@@H](CO)C(=O)N[C@@H](Cc1ccc(O)cc1)C(=O)N[C@@H](CCCNC(=N)N)C(=O)N[C@@H](CCCCN)C(=O)N[C@H](C(=O)N[C@@H](CC(C)C)C(=O)NCC(=O)N[C@@H](CCC(N)=O)C(=O)N[C@@H](CC(C)C)C(=O)N[C@@H](CO)C(=O)N[C@@H](C)C(=O)N[C@@H](CCCNC(=N)N)C(=O)N[C@@H](CCCCN)C(=O)N[C@@H](CC(C)C)C(=O)N[C@@H](CC(C)C)C(=O)N[C@@H](CCC(N)=O)C(=O)N[C@@H](CC(=O)O)C(=O)N[C@H](C(=O)N[C@@H](CCSC)C(=O)N[C@@H](CO)C(=O)N[C@@H](CCCNC(=N)N)C(=O)N[C@@H](CCC(N)=O)C(=O)N[C@@H](CCC(N)=O)C(=O)NCC(=O)N[C@@H](CCC(=O)O)C(=O)N[C@@H](CO)C(=O)N[C@@H](CC(N)=O)C(=O)N[C@@H](CCC(N)=O)C(=O)N[C@@H](CCC(=O)O)C(=O)N[C@@H](CCCNC(=N)N)C(=O)NCC(=O)N[C@@H](C)C(=O)N[C@@H](CCCNC(=N)N)C(=O)N[C@@H](C)C(=O)N[C@@H](CCCNC(=N)N)C(=O)N[C@@H](CC(C)C)C(N)=O)[C@@H](C)CC)C(C)C)[C@@H](C)O` [GHRH, Growth hormone-releasing hormone]?
Answer: EC50 (GHRHR T213A): 0.447 nM; Emax (GHRHR T213A): 91.48±4.55 % WT; EC50 (GHRHR D193A): 0.115 nM; Emax (GHRHR D193A): 101.42±1.02 % WT; EC50 (GHRHR H210A): 1 nM; Emax (GHRHR H210A): 99.66±1.10 % WT; EC50 (GHRHR A271F): 0.186 nM; Emax (GHRHR A271F): 103.70±0.64 % WT; EC50 (GHRHR C195A): 21.4 nM; Emax (GHRHR C195A): 95.22±1.05 % WT; EC50 (GHRHR D350A): 148 nM; Emax (GHRHR D350A): 47.38±8.48 % WT; EC50 (GHRHR L362A): 0.112 nM; Emax (GHRHR L362A): 103.97±0.47 % WT; EC50 (GHRHR F187A): 1.15 nM; Emax (GHRHR F187A): 101.68±1.52 % WT; EC50 (GHRHR L119A): 0.724 nM; Emax (GHRHR L119A): 98.67±1.48 % WT; EC50 (GHRHR N346A): 1.41 nM; Emax (GHRHR N346A): 101.21±3.69 % WT; EC50 (GHRHR T192A): 0.229 nM; Emax (GHRHR T192A): 103.11±1.18 % WT; EC50 (GHRHR V129A): 166 nM; Emax (GHRHR V129A): 24.33±6.11 % WT; EC50 (GHRHR I289A): 9.77 nM; Emax (GHRHR I289A): 93.36±2.36 % WT; EC50 (GHRHR F126A): 1.1 nM; Emax (GHRHR F126A): 98.92±0.84 % WT
